According to US20140057895A1, “INDAZOLE- AND PYRROLOPYRIDINE-DERIVATIVE AND PHARMACEUTICAL USE THEREOF” (priority 2011, published 2014):
Structures can show the parent of a compound that is named as a salt.

Tests used:
[1] = system: scopolamine-induced cognitive impairment; experiment: Example 5: Y-maze test, scopolamine-induced cognitive impairment, single-agent administration (Table 101); type: in vivo, ddY mouse; conditions: p.o., scopolamine-treated, # = P<0.05 vs scopolamine group
Excerpt: Thus, scopolamine-induced cognitive impairment model, one of the AD-like model, has been used to predict pharmacodynamic signals of putative procognitive compounds, utilizing the acetylcholinesterase inhibitor donepezil for illustration (See, Citations 1 and 2). The present inventors investigated the effect of each compound on reversal of scopolamine-induced deficits in performance of Y-maze test in mice, and they also investigated adjunctive effect of compounds with donepezil on reversal of deficits induced by scopolamine and MK801 in mice.
Used animal: ddY mouse (SLC)
In the experiments, the mice were grouped in the same way using Stat Preclinica (Version 1.03295; Takumi Information Technology Inc.). The selected mice were divided into 5 to 7 groups of 7 to 12 mice using the “completely randomization design by the single variable” program (Analytical program version 1.0.7), with body weight on the testing day. After grouping, p values for Bartlett's test and ANOVA across all groups were greater than 0.2, indicating no significant difference in this parameter among the groups.
The required amount of each compound was weighed and put into a glass homogenizer. […]
The required amount of scopolamine and MK801 were weighed, and saline was added to it to give 0.3 mg/mL and 0.015 mg/mL solution, respectively.
90 Min before the test, the mice were orally administered each compound, donepezil, and vehicle (0.5% methyl cellulose, 10 mL/kg). After 60 min, memory impairment was induced by administering scopolamine (0.6 mg/kg, s.c.) with (co-administration) or without (mono-administration) MK801 (0.03 mg/kg, s.c.). The control group received saline (2 mL/kg, s.c.) rather than scopolamine and MK801.
The Y-maze used herein is a three-arm maze with equal angles between all arms. The mazefloor and walls were constructed from black acrylic resin. The mice were initially placed within one arm, and the sequence and number of arm entries were recorded manually for each mouse over an 8-min period.
Data were processed and analyzed with Microsoft® Office Excel 2003. The alternation behavior was defined as entries into all three arms on consecutive occasions. The percent alternation behavior in each animal was calculated using the following formula, and rounded to one decimal place.
Alternation behavior(%)=[actual alternation/(total arm entries−2)]×100
Restoration ratio of alternation behavior (%) in each animal was calculated using the following formula, and rounded to one decimal place.
Restoration ratio of alternation behavior in each animal (%)=y Alternation behavior in each animal (%)=x Mean of alternation behavior in vehicle-treated group (group No. 1) (%)=A Mean of alternation behavior in scopolamine-treated group (group No. 2) (%)=B
Data were expressed as the mean of the percent alternation behavior, the number of total arm entries and the restoration ratio of alternation behavior.
Values of Y-maze tests are expressed as mean of alternation behavior (n=7−12).
Alternation behaviors in the scopolamine-treated groups were compared to those in the control groups using Wilcoxon rank sum test (Stat preclinical; Version 1.03295; Takumi Information Technology Inc.) with a two-sided significance level of 0.05.
Restoration of alternation behavior was analyzed using Stat Preclinica. Alternation behaviors in the vehicle-treated group were compared to those in the test substance-treated groups using non-parametric Dunnett multiple comparison test (Analytical program version 1.0.2) with a two-sided significance level of 0.05.

human 5-HT4b receptor = target: T1, human 5-HT4b receptor (Homo sapiens, UniProt Q13639); experiment: Test Example 2: Serotonin 4 (5-HT4) receptor agonist activity assay, cAMP HTRF in CHO cells (Table 97); type: cell-based; conditions: cAMP in CHO cells expressing human 5-HT4b receptor, mean value; for Emax: 0.25 h, intrinsic activity, maximal activity of 5-HT defined as 100%, read-out: IA (%); for EC50: concentration showing 50% of IA
T1 construct: expressed in transfected cells; host or cells: CHO cells (G418 selection)
Method: The cAMP measurement test used herein was carried out by using CISBIO HTRF (trademark) cAMP Hirange kit according to the manufacturer's instructions attached therewith.
CHO cells expressing human 5-HT4b receptor were incubated in Medium 1 [DMEM/1% NEAA, 1% penicillin/streptomycin (P/S), 0.2 mg/mL GENETICIN (G418), 10% FBS] at 37° C. under 5% CO2 condition. Then, the cells were put into Medium 2 (DMEM/10000 cut FBS, G-418, P/S, NEAA) for 1 to 2 hours, and collected by treating with trypsin containing EDTA. The collected cells were suspended in Assay Buffer 1 [100 mM Hanks/HEPES buffer (pH 7.4)], the suspended cells were mixed with the testing compound on 384-well plates, and the cells were incubated at 31° C. for 15 minutes. To the cells were added cAMP-cryptate solution and cAMP-d2 solution, and they were incubated at room temperature for 1 hour. Then, time-resolved fluorescence was measured by En Vision (excitation wavelength: 330 nm, fluorescence wavelength: 620/665 nm). An intrinsic activity of the compound [IA (%)] and a concentration showing 50% of IA [EC50 (nM)] were calculated from the obtained results. In particular, the intrinsic activity (IA) was calculated on the basis of the maximal activity of 5-HT (measured from 10^−11 M to 10^−7 M) defined as 100%.
(§1) In the following table, the compounds used in the test are shown in numbers which correspond to the Example numbers above where the preparations of the compounds are described.

5-HT4 receptor = target: T2, 5-HT4 receptor (Cavia porcellus, UniProt O70528); experiment: Test Example 1: Serotonin 4 (5-HT4) receptor binding assay, [3H]-GR113808, guinea pig striatum membranes (Table 96); conditions: Guinea pig 5-HT4 receptor binding assay, [3H]-GR113808, striatum membranes; mean value of each group
T2 construct: striatum was isolated which was cryopreserved at −80° C. until use; from tissue; host or cells: guinea pig (Slc-Hartley) striatum membranes
Method: The 5-HT4 receptor binding assay and preparations of receptor membrane preparations herein were carried out according to a method of Grossman et al. [see, British J. Pharmacol., (1993) 109, 618].
Slc-Hartley guinea pigs (body weight 300 g to 400 g) were decapitated to remove brain rapidly, and striatum was isolated which was cryopreserved at −80° C. until use. To the obtained tissues were added fifteen fold of Hepes buffer (50 mM, pH 7.4, 4° C.), and the mixture was homogenized by Teflon (trademark) homogenizer and centrifuged at 48,000×g (4° C.) for 15 minutes. To the resulting precipitate was added Hepes buffer (1 ml) to 30 mg by wet weight of tissues, and the mixture was suspended to give receptor membrane preparations.
To an assay tube were added 0.1 nM [^3H]-GR113808 {chemical name: [1-[2-(methylsulfonylamino)ethyl]-4-piperidinyl]methyl 1-methylindole-3-carboxylate}, receptor membrane preparations, and Hepes buffer (50 mM, pH 7.4, 4° C., 1 ml) containing test compounds or 30 μM serotonin; and the mixture was incubated at 37° C. for 30 minutes. On quenching the reaction, the mixture was rapidly filtered on whatman GF/B filter, which was presoaked in 0.1% polyethyleneimine for 1 hour, by using Brandel cell Harvester, and washed with ice-cooled 50 mM Tris-HCl (pH 7.7, 4 ml) three times. To the filter after filtration was added a liquid scintillator (Ecoscint), and then a radioactivity was determined by a liquid scintillation counter.
50% Inhibition concentrations (IC50) were determined from inhibition rates of test compounds to specific bindings which were obtained by subtracting nonspecific bindings from total binding amounts of [^3H]-GR113808.
as §1

T2 sequence (O70528 whole entry): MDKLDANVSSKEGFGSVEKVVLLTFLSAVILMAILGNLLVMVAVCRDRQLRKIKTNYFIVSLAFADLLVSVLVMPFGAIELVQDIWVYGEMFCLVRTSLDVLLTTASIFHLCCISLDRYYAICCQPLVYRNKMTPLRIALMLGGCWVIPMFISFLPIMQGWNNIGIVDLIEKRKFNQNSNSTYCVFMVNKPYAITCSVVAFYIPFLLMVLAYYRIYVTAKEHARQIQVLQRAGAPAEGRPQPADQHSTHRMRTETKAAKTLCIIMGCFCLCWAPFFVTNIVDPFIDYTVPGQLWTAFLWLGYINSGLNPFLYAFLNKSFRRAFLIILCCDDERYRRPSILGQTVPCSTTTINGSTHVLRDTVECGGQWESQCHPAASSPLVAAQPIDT
T1 sequence (Q13639 whole entry): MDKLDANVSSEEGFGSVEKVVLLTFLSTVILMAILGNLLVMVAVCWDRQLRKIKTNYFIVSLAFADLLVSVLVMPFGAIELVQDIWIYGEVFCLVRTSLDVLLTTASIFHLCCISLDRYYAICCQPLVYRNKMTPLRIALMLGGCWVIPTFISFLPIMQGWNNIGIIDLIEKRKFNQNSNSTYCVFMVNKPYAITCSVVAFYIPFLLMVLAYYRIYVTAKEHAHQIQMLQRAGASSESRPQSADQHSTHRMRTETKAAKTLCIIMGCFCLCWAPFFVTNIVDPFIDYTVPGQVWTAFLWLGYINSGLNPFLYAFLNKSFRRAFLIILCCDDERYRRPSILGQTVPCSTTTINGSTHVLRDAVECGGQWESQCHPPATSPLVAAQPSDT

| Structure (SMILES) | Emax (human 5-HT4b receptor) | EC50 (human 5-HT4b receptor) | IC50 (5-HT4 receptor) | Alternation behavior (%) ([1]; compound 1 mg/kg) | Alternation behavior (%) ([1]; compound 3 mg/kg) | Alternation behavior (%) ([1]; compound 10 mg/kg) |
| --- | --- | --- | --- | --- | --- | --- |
| CCc1nn(-c2noc(C3CCN(CC4CN(C(=O)OC)C4)CC3)n2)c2c(F)cccc12 [Example 218, methyl 3-({4-[3-(3-ethyl-7-fluoro-1H-indazol-1-yl)-1,2,4-oxadiazol-5-yl]piperidin-1-yl}methyl)azetidine-1-carboxylate] |  |  |  | 59.9% | 53% | 61.3% |
| COCCCN1CCC(c2nc(-n3nc(C4CC4)c4ccccc43)no2)CC1 [Example 88, 3-cyclopropyl-1-{5-[1-(3-methoxypropyl)piperidin-4-yl]-1,2,4-oxadiazol-3-yl}-1H-indazole trifluoroacetate] | 37% | 16.4 nM | 33.5 nM |  |  |  |
| CCc1nn(-c2noc(C3CCN(C(C)CC)CC3)n2)c2ccccc12 (centres unmarked) [Example 101, 1-{5-[1-(butan-2-yl)piperidin-4-yl]-1,2,4-oxadiazol-3-yl}-3-ethyl-1H-indazole trifluoroacetate] | 70% | 8.9 nM | < 20 nM |  |  |  |
| CCc1nn(-c2noc(C3CCN(C[C@H]4CCN(C(C)=O)C4)CC3)n2)c2cc(F)ccc12.Cl [Example 205, 1-[(3R)-3-({4-[3-(3-ethyl-6-fluoro-1H-indazol-1-yl)-1,2,4-oxadiazol-5-yl]piperidin-1-yl}methyl)pyrrolidin-1-yl]ethanone hydrochloride] |  |  |  | 66.9^# % | 54.8% | 66.7^# % |
| CCc1nn(-c2noc(C3CCN(CCCOC)CC3)n2)c2ccccc12 [Example 87, 3-ethyl-1-{5-[1-(3-methoxypropyl)piperidin-4-yl]-1,2,4-oxadiazol-3-yl}-1H-indazole trifluoroacetate] | 80% | 9.4 nM | 21 nM |  |  |  |
| CCc1nn(-c2noc(C3CCN(CCC4CCOCC4)CC3)n2)c2cc(F)ccc12 [Example 137, 3-ethyl-6-fluoro-1-(5-{1-[2-(tetrahydro-2H-pyran-4-yl)ethyl]piperidin-4-yl}-1,2,4-oxadiazol-3-yl)-1H-indazole] | 66% | 8.6 nM | < 20 nM |  | 49.3% | 62.6^# % |
| CCc1nn(-c2noc(C3CCN(CC(C)C)CC3)n2)c2ccccc12 [Example 103, 3-ethyl-1-(5-[1-(2-methylpropyl)piperidin-4-yl]-1,2,4-oxadiazol-3-yl}-1H-indazole] | 59% | 11 nM | < 20 nM |  |  |  |

Now from value to compound, other results behind:

| Emax (human 5-HT4b receptor) | EC50 (human 5-HT4b receptor) | IC50 (5-HT4 receptor) | Structure (SMILES) | Alternation behavior (%) ([1]; compound 1 mg/kg) | Alternation behavior (%) ([1]; compound 3 mg/kg) | Alternation behavior (%) ([1]; compound 10 mg/kg) |
| --- | --- | --- | --- | --- | --- | --- |
| 81% | 6 nM | < 20 nM | CCc1nn(-c2noc(C3CCN(C(C)C)CC3)n2)c2cc(F)ccc12 [Example 143, 3-ethyl-6-fluoro-1-{5-[1-(propan-2-yl)piperidin-4-yl]-1,2,4-oxadiazol-3-yl}-1H-indazole] |  |  |  |
| 73% | 24.9 nM | 26.4 nM | CCc1nn(-c2noc(C3CCN(CC4CC4)CC3)n2)c2ccccc12 [Example 112, 1-{5-[1-(cyclopropylmethyl)piperidin-4-yl]-1,2,4-oxadiazol-3-yl}-3-ethyl-1H-indazole trifluoroacetate] |  |  |  |
| 55% | 2.9 nM | < 20 nM | CCc1nn(-c2noc(C3CCN(C4CCN(C(C)=O)CC4)CC3)n2)c2c(F)cccc12 [Example 229, 1-{4-[3-(3-ethyl-7-fluoro-1H-indazol-1-yl)-1,2,4-oxadiazol-5-yl]-1,4′-bipiperidin-1′-yl}ethanone hydrochloride] |  |  |  |
| 66% | 8.2 nM | 28.7 nM | CCc1nn(-c2noc(C3CCN(C4CCN(C(C)=O)CC4)CC3)n2)c2cc(F)ccc12 [Example 228, 1-{4-[3-(3-ethyl-6-fluoro-1H-indazol-1-yl)-1,2,4-oxadiazol-5-yl]-1,4′-bipiperidin-1′-yl}ethanone hydrochloride] |  |  |  |
| 67% | 22.4 nM | < 20 nM | CCc1nn(-c2noc(C3CCN(C4CCOC4)CC3)n2)c2cc(F)ccc12 (centres unmarked) [Example 138, 3-ethyl-6-fluoro-1-{5-[1-(tetrahydrofuran-3-yl)piperidin-4-yl]-1,2,4-oxadiazol-3-yl}-1H-indazole] |  |  |  |
| 29% | 14.7 nM | < 20 nM | CCc1nn(-c2noc(C3CCN(CC4CCCO4)CC3)n2)c2ccccc12 (centres unmarked) [Example 132, 3-ethyl-1-{5-[1-(tetrahydrofuran-2-ylmethyl)piperidin-4-yl]-1,2,4-oxadiazol-3-yl}-1H-indazole] |  |  |  |
| 84% | 6.2 nM | < 20 nM | CCc1nn(-c2noc(C3CCN(CCCO)CC3)n2)c2ccccc12 [Example 261, 3-{4-[3-(3-ethyl-1H-indazol-1-yl)-1,2,4-oxadiazol-5-yl]piperidin-1-yl}propan-1-ol] |  |  |  |
